The text below walks through data of patent US8541029B2, “Article and method for focused delivery of therapeutic and/or diagnostic materials” (Armark Authentication Technologies, LLC, priority 2006, dated 2013).

This data set in a line: Isolated temperature response of component materials to microwave RF. The format is physicochemical. The note with it: 130 Watts for 60 seconds; for P1 60 seconds ° F.: initial 68 ° F. How it is done: The microcells were suspended as an aqueous sample while exposed to microwave RF. Both water and mineral oil were evaluated as a liquid medium to expose microcell samples. 500 milligram samples of each microcell component were dispersed in both water and mineral oil and exposed to 130 watts of microwave RF for 60 seconds to determine the preferred fluid medium to carry out the experiment.
Microwave RF exposure was performed in a Panasonic 1300 Watt Inverter Technology® Microwave Oven Model NN-SN667W at 130 Watts. The oven was retrofitted with all quartz platforms to reduce/eliminate dipole induction heating from standard glass structures. All containment and experimental material other than water or albumen in contact with the experimental samples was microwave transparent. Containment devices such as test tubes, slides, and cover slips were either quartz or microwave transparent plastics. Microwave oven use was limited to less than 90 minutes per test period to reduce/prevent incidental heating of the oven chamber. A 500 milliliter water “reservoir-load” was maintained within the oven chamber to absorb microwave energy and prevent magnetron damage. All tests were run in an environmentally-controlled room at about 65° F. (about 18.3° C.) and 50% RH.

For `CC(=O)Nc1ccc(O)cc1` [Acetaminophen, acetaminophen], the “ΔT ° F.” value (500 mg in 10 g Mineral Oil) was determined as 0 ° F and the “ΔT ° F.” value (500 mg in 10 g Water) stood at 22 ° F. In addition, the “P1 60 seconds ° F.” value is, setting by setting: (500 mg in 10 g Mineral Oil) 68 ° F; (500 mg in 10 g Water) 90 ° F.
